According to BigSolDB 2.1:

Cl.N=C(N=C(N)N)N1CCOCC1
solubility (mole fraction)
Settings	283.15 K	293.15 K	303.15 K	313.15 K	323.15 K
in acetone	1.9e-05	3.3e-05	6.2e-05	0.000107	0.000186
in acetonitrile	9.1e-05	0.000106	0.000117	0.000128	0.000149
in ethanol	0.0023	0.00283	0.00356	0.00461	0.00615
in ethyl acetate	7.7e-05	9.7e-05	0.000117	0.000138	0.000161
in isobutanol	0.000621	0.000696	0.000915	0.00124	0.00157
in isopropanol	0.000482	0.00062	0.00079	0.001	0.00124
in methanol	0.013	0.0215	0.0268	0.0341	0.0423
in n-butanol	0.000682	0.000834	0.00101	0.00137	0.00184
in n-pentanol	0.00045	0.000545	0.00061	0.000729	0.000967
in n-propanol	0.0011	0.00136	0.00161	0.00206	0.00279
in sec-butanol	0.000297	0.000358	0.000445	0.000534	0.000732
in water	0.0565	0.0653	0.0853	0.105	0.127
